ChEMBL document CHEMBL4330074, “Discovery of potent azaindazole leucine-rich repeat kinase 2 (LRRK2) inhibitors possessing a key intramolecular hydrogen bond - Part 2” (Bioorg Med Chem Lett, 2019)

What was measured:
[1] = biological target: T1, Leucine-rich repeat serine/threonine-protein kinase 2 (Homo sapiens, UniProt Q5S007, G2019S); experiment: Inhibition of LRRK2 G2019S mutant (unknown origin) by cell based assay
[2] = Clearance in rat at 0.5 to 1 mg/kg, iv; format: ADME, organism-based; settings: in vivo
P-gp (human MDR1) = experiment: Efflux ratio of permeability from basolateral to apical side over apical to basolateral side in MDCK-MDR1 cells harboring human P-gp at 5 uM; format: ADME, cell-based, Canis lupus familiaris; settings: dog
[3] = Clearance in rat at 0.5 mg/kg, iv; format: ADME, organism-based; settings: in vivo
[4] = biological target: T1, Leucine-rich repeat serine/threonine-protein kinase 2; experiment: Inhibition of recombinant human GST-tagged LRRK2 G2019S mutant catalytic domain (970 to 2527 residues) expressed in insect cells using RtGWWRFYTLRRARQGNTKQR as substrate measured after 180 mins in presence of [gamma33P]ATP by topcount method
Homo sapiens = organism: Homo sapiens; experiment: Selectivity ratio of Ki for JAK2 (unknown origin) to Ki for recombinant human GST-tagged LRRK2 G2019S mutant catalytic domain (970 to 2527 residues) expressed in insect cells
[5] = Oral bioavailability in rat at 1 mg/kg; format: ADME, organism-based; settings: in vivo
[6] = biological target: Serine/threonine-protein kinase 26 (Homo sapiens) (UniProt Q9P289); experiment: Inhibition of MST4 (unknown origin) at 1 uM relative to control
[7] = Ratio of AUC in rat brain to plasma at 0.5 mg/kg, iv; format: ADME, organism-based; settings: brain and plasma, read-out: Ratio AUC
[8] = biological target: T2, Dual specificity protein kinase TTK (Homo sapiens) (UniProt P33981); experiment: Inhibition of TTK (unknown origin) at 1 uM relative to control
T2 sequence (whole entry): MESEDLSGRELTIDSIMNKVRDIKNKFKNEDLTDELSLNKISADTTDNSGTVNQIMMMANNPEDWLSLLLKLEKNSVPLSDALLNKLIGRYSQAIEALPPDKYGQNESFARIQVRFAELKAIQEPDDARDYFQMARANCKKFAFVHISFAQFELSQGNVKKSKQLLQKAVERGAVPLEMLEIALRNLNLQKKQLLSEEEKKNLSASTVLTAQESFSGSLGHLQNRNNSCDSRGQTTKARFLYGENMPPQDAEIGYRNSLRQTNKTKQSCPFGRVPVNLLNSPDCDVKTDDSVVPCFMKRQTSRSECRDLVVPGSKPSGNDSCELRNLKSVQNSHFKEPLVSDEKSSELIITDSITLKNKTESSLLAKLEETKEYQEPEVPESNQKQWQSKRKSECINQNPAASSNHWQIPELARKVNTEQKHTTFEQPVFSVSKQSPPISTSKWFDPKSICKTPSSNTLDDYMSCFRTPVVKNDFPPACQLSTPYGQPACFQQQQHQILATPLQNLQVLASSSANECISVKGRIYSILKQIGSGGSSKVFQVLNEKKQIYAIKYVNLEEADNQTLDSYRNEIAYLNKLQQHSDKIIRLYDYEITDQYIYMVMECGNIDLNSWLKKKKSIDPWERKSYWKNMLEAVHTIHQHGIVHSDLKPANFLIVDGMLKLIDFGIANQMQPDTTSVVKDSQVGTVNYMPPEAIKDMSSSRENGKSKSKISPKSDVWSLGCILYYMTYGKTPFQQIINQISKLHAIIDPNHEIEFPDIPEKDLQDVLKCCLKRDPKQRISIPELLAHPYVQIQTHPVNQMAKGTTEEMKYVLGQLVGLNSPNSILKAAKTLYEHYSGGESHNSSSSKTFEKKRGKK

TAK1/TAB1 (Homo sapiens) = TAK1/TAB1 (Homo sapiens) (UniProt Q15750+O43318); experiment: Inhibition of TAK1/TAB1 (unknown origin) at 1 uM relative to control; format: protein-complex assay
[9] = Ratio of fAUC in rat brain to plasma at 0.5 mg/kg, iv; format: ADME, organism-based; settings: brain and plasma
[10] = biological target: Maternal embryonic leucine zipper kinase (Homo sapiens) (UniProt Q14680); experiment: Inhibition of MELK (unknown origin) at 1 uM relative to control
Maternal embryonic leucine zipper kinase (Homo sapiens), sequence (Q14680 whole entry, looked up): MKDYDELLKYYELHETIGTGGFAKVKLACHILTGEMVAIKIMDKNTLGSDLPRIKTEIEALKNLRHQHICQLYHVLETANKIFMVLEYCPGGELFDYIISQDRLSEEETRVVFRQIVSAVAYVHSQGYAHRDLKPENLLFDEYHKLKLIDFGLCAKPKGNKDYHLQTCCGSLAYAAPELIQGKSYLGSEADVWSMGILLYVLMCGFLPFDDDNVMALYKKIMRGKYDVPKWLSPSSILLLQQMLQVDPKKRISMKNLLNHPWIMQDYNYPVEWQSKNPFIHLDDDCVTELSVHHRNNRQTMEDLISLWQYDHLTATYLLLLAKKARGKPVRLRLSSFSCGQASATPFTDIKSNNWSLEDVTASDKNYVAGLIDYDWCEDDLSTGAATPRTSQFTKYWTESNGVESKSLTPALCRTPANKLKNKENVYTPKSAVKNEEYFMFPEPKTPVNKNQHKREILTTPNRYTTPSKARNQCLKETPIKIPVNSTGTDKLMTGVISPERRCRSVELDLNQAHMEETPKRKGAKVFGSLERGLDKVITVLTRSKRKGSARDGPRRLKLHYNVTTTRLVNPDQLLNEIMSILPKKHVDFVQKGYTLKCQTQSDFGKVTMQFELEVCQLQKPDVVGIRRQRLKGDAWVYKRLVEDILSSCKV

T1 sequence (Q5S007 whole entry G2019S): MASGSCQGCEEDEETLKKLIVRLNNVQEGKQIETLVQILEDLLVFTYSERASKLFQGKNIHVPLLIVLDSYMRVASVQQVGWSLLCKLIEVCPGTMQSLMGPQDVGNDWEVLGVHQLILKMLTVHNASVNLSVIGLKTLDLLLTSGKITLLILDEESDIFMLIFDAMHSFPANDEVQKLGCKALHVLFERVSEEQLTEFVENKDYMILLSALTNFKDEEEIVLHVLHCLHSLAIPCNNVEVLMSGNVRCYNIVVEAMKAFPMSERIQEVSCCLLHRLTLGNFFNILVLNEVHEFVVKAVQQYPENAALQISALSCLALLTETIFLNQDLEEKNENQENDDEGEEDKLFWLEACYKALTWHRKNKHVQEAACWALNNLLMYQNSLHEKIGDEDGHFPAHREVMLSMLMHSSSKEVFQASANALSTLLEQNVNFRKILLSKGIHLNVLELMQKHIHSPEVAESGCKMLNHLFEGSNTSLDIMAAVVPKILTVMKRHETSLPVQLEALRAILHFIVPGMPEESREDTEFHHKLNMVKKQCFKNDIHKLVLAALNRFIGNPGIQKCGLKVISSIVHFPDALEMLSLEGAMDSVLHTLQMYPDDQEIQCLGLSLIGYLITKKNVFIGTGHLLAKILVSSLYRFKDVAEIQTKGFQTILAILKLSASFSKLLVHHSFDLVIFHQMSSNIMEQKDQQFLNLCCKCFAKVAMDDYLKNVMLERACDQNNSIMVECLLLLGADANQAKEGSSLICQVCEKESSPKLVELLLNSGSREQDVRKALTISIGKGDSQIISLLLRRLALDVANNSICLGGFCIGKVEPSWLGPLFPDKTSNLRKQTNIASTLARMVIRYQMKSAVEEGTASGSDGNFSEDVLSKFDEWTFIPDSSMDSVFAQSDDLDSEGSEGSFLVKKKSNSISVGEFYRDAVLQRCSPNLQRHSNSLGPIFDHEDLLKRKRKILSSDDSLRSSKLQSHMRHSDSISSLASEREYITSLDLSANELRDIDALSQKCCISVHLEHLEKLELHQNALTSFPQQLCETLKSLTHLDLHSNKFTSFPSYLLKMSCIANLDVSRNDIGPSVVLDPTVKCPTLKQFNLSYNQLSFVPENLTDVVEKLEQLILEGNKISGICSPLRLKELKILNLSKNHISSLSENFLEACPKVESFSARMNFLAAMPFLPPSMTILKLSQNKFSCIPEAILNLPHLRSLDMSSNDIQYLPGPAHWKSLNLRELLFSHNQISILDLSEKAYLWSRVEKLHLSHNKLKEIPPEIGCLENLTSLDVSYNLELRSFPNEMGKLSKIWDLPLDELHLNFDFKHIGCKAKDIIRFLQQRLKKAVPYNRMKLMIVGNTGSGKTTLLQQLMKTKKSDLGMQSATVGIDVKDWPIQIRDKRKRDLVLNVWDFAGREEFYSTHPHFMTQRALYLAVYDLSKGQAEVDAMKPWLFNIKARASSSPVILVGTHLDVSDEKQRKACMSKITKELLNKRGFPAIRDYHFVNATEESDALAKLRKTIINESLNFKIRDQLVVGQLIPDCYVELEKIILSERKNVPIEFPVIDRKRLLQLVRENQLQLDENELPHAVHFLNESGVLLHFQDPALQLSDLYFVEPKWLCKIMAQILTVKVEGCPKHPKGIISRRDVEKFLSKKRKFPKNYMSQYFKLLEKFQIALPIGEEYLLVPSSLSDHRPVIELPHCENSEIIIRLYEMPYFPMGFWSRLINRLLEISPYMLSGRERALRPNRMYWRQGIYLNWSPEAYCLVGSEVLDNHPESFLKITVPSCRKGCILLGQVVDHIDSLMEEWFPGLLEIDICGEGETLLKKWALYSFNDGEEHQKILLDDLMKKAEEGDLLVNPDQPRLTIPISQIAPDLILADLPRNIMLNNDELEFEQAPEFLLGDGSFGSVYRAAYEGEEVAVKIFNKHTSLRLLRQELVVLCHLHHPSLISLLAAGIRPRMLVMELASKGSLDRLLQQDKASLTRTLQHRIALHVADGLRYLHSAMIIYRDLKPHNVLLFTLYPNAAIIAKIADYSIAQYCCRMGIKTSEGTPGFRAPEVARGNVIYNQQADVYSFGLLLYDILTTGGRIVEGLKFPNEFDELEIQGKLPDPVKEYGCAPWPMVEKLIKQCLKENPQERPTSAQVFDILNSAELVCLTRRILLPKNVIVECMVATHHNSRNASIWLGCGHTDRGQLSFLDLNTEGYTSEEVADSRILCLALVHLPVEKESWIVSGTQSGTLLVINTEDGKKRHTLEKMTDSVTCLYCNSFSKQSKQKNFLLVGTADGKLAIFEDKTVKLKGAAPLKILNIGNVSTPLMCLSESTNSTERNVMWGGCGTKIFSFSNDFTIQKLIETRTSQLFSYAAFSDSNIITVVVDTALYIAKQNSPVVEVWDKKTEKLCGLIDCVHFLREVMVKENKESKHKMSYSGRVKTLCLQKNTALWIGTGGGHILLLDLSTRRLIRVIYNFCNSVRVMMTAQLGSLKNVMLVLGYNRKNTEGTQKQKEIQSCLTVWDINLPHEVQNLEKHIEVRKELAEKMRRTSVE
Serine/threonine-protein kinase 26 (Homo sapiens), sequence (Q9P289 2-416 limits assumed): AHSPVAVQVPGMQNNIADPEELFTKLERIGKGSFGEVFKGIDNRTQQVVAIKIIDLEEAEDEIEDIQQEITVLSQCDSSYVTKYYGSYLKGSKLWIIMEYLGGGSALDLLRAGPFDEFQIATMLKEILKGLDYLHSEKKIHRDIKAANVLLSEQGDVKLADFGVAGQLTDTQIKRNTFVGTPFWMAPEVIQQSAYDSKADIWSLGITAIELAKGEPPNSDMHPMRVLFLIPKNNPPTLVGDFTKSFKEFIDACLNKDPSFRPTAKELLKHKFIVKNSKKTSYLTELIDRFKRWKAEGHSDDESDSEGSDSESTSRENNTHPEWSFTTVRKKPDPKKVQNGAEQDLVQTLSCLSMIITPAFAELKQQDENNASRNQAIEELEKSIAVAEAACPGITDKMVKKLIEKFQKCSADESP

SMILES | IC50 [1] | efflux ratio at 5 µM (P-gp (human MDR1)) | Ki [4] | other results
c1cc(-c2n[nH]c3ccnc(NC4CCOCC4)c23)cc(N2CCOCC2)n1 | 135 nM | 1.5 |  | clearance [2]: 117 mL/min/kg
CC(C)c1nc(-c2n[nH]c3ccnc(NC4CCOCC4)c23)n[nH]1 | 35 nM | 21 | 7.8 nM | clearance [3]: 35 mL/min/kg
CC(C)Nc1nccc2[nH]nc(-c3nnc(C4CC4)n3C)c12 |  |  | 151 nM | 
CCc1cc(-c2n[nH]c3ccnc(NC4CCOCC4)c23)nn1C | 4.5 nM | 10 | 0.5 nM | 
CCc1cc(-c2n[nH]c3ccnc(NC(C)C)c23)nn1C |  | 4 | 3.5 nM | 
Cc1[nH]nc2ccnc(NC3CCOCC3)c12 |  |  |  | Ratio Ki (Homo sapiens): 20
c1cc(-c2n[nH]c3ccnc(OC4CCOCC4)c23)[nH]n1 |  |  | 44 nM | 
FC(F)(F)c1cc(-c2n[nH]c3ccnc(NC4CCOCC4)c23)ncn1 | 24 nM | 1.4 | 4.1 nM | bioavailability [5]: 62%; inhibition [6]: 59%; Kp [7]: 1; inhibition [8]: 52%; Ratio Ki (Homo sapiens): 1000; inhibition (TAK1/TAB1 (Homo sapiens)): 51%; Kp uu [9]: 0.22; clearance [3]: 18 mL/min/kg
Cc1n[nH]c2ccnc(NC3CCOCC3)c12 | 426 nM | 1.1 | 182 nM | clearance [2]: 25 mL/min/kg
CC(C)c1n[nH]c(-c2n[nH]c3ccnc(OC4CCOCC4)c23)n1 |  |  | 4600 nM | 
CC(C)(O)Cn1cc(-c2n[nH]c3ccnc(OC4CCOCC4)c23)cn1 | 13 nM | 80 | 21 nM | clearance [3]: 30 mL/min/kg
CCc1cc(-c2n[nH]c3ccnc(NC4CCOCC4)c23)n(C)n1 |  | 11 | 3900 nM | 
c1cc(-c2n[nH]c3ccnc(OC4CCOCC4)c23)cc(N2CCOCC2)n1 | 24 nM | 3.4 | 4.2 nM | inhibition [8]: 86%; Ratio Ki (Homo sapiens): 882; clearance [2]: 69 mL/min/kg; inhibition [10]: 60%
CC(C)n1cc(-c2n[nH]c3ccnc(NC4CCOCC4)c23)nn1 | 49 nM | 23 | 1.2 nM | 
c1cc(-c2n[nH]c3ccnc(OC4CCOCC4)c23)nc(N2CCOCC2)c1 |  |  | 147 nM | 
c1ccc(-c2n[nH]c3ccnc(NC4CCOCC4)c23)nc1 | 41 nM | 3.6 | 3.1 nM | clearance [3]: 22 mL/min/kg
Cc1n[nH]c2ccnc(OC3CCOCC3)c12 | 301 nM | 0.9 | 44 nM | Ratio Ki (Homo sapiens): 20; clearance [2]: 34 mL/min/kg
